How the values were obtained:
MDA-MB-231 cells [1] = assay: Cancer cell death verification (MTT cell viability); type: cell-based
U-87MG cells = assay: Change over time in intracellular ADP-ribose, radiation versus ADP-ribose treatment (ELISA); type: cell-based; details: 8 μM ADP-ribose, even after 24 hours, after radiation back to untreated level at 24 hours
Experimental: Brain cancer (U-87MG), kidney cancer (Caki-1), pancreatic cancer (AsPC-1), or breast cancer (MDA-MB-231) cells were cultured in a 6-well plate, respectively, and the cells were divided into the untreated group, the radiation-treated group, and the ADP-ribose-treated group. Irradiation was performed using an X-Rad 320 irradiator (Precision X-ray, North Branford, CT, USA), and cancer cells were treated with a total of 1, 2, and 5 Gy at a dose rate of 300 kVp and 150 cGy/min using an X-ray beam filter composed of 12.5 mA and 2.0 mm Al, respectively. Before treatment and at 4, 8, 16, and 24 hours after treatment, the medium was removed, the cells were washed with phosphate-buffered saline, and then RIPA buffer was added and the products were left on ice for 20 minutes. After scraping the cells, the cells were put in a centrifuge tube and centrifuged for 10 minutes at 10,000 g and 4° C. The supernatant was obtained, and 1% SDS was added, and then the reaction product was boiled at 100° C. for 5 minutes and cooled on ice. The supernatant was centrifuged again at 10,000 g and 4° C. for 10 minutes to obtain the final supernatant, and ADP-ribose was quantitatively analyzed using an ELISA analysis kit (Cell Biolabs, Inc., San Diego, CA, USA). […]

HCT116 cells = assay: Cell death by combination treatment of ADP-ribose and radiation (MTT); type: cell-based; details: HCT116, 16 μM ADP-ribose in combination with 2 Gy radiation, 24 hours, P<0.001; 2 Gy alone about 90.3%
Experimental: 3×10^3 Brain cancer (U-87MG), lung cancer (H1975), pancreatic cancer (Aspc-1), liver cancer (Hep G2), breast cancer (MDA-MB-231), colon cancer (HCT116), and kidney cancer (Caki-1) cells were cultured in a 96-well plate for 24 hours under conditions of 37° C. and 5% CO2, treated with ADP-ribose or 2 or 5 Gy radiation alone or in combination with ADP-ribose and 2 Gy radiation, and cultured for 24 hours under conditions of 37° C. and 5% CO2 again. Then, 10 μl of 3-(4,5-dimethylthiazol-2-yl)-2,5-diphenyltetrazolium bromide reagent was added to each well and reacted for 1 hour. After the reaction was completed, the reagent was removed, 200 μl of dimethyl sulfoxide was added to each well, and the absorbance was measured to compare the degree of cell death.
3×10^3 HCT116 cells were cultured in a 96-well plate for 24 hours under conditions of 37° C. and 5% CO2, treated with 16 μM of ADP-ribose and 2 or 5 Gy dose of radiation individually or in combination, and cultured for 24 hours under conditions of 37° C. and 5% CO2 again. Then, 10 μl of 3-(4,5-dimethylthiazol-2-yl)-2,5-diphenyltetrazolium bromide reagent was added to each well and reacted for 1 hour. After the reaction was completed, the reagent was removed, 200 μl of dimethyl sulfoxide was added to each well, and the absorbance was measured to confirm cell viability.

[2] = system: Liver cancer (Hep G2) cells; assay: Xenograft model, combination with anti-cancer drug, tumor volume; type: in vivo, BALB/c nude mice
Experimental: (§1) Brain (U-87MG), lung (H1975), pancreatic (AsPC-1), or liver (Hep G2) cells (1×10^7 cells) were inoculated into 5-week-old BALB/c nude mice on the back flank, respectively. Then, when tumors were grown to a volume of approximately 150 mm^3, the mice were divided into the control group (control), an anti-cancer drug alone treatment group, and a combination treatment group. […] The tumor size was measured every 6 days using a digital caliper, and the results of changes in tumor volume were compared by the group.
Liver cancer (Hep G2) cells (1×10^7) were inoculated into 5-week-old BALB/c nude mice on the back flank, and the mice were divided into three groups: the control group (Control), single oral administration of 10 mg/kg of sorafenib, and combination administration of sorafenib+10 mg/kg of ADP-ribose. When the tumors were grown to a volume of approximately 150 mm^3, sorafenib was administered orally 5 times a week, and ADP-ribose at 10 mg/kg was injected subcutaneously 3 times a week. The tumor size was measured using a digital caliper, and the results of changes in tumor volume were compared by the group.

SNU-1 cells = assay: Cancer cell death verification (MTT cell viability); type: cell-based; details: SNU-1, 32 μM ADP-ribose, 24 hours
Experimental: 3×10^3 SNU-1 or OVCAR-3 cells were cultured in a 96-well plate for 24 hours under conditions of 37° C. and 5% CO2, treated with ADP-ribose at concentrations of 32 μM, respectively, and cultured again for 24 hours under conditions of 37° C. and 5% CO2. Then, 10 μl of 3-(4,5-dimethylthiazol-2-yl)-2,5-diphenyltetrazolium bromide reagent was added to each well and reacted for 1 hour. After the reaction was completed, the reagent was removed, 200 μl of dimethyl sulfoxide was added to each well, and the absorbance was measured to confirm cell viability.

[3] = system: Colon cancer (HCT116) cells; assay: Cell death by combination treatment with anti-cancer drug (MTT); type: cell-based; details: Homo sapiens, HCT-116; HCT116, ADP-ribose 1.6 μM/100 μl in combination with 5-FU 10 μM, 24 hours, P<0.001
Experimental: 3×10^3 Brain cancer (U-87MG), lung cancer (H1975), pancreatic cancer (Aspc-1), liver cancer (Hep G2), breast cancer (MDA-MB-231), and colon cancer (HCT116) cells were cultured in a 96-well plate for 24 hours under conditions of 37° C. and 5% Ca2, respectively. […] After the treatment was terminated, the cells were cultured for 24 hours under conditions of 37° C. and 5% CO2 again, 10 μl of 3-(4,5-dimethylthiazol-2-yl)-2,5-diphenyltetrazolium bromide reagent was added to each well and reacted for 1 hour. After the reaction was completed, the reagent was removed, 200 μl of dimethyl sulfoxide was added to each well, and the absorbance was measured to compare the degree of cell death.
3×10^3 Colon cancer (HCT116) cells were cultured in a 96-well plate for 24 hours under conditions of 37° C. and 5% CO2, treated with ADP-ribose at a concentration of 1.6 μM/100 μl and 5-fluorouracil (5-FU) at 10 μM, individually or in combination, and cultured for 24 hours under conditions of 37° C. and 5% CO2 again. Then, 10 μl of 3-(4,5-dimethylthiazol-2-yl)-2,5-diphenyltetrazolium bromide reagent was added to each well and reacted for 1 hour. After the reaction was completed, the reagent was removed, 200 μl of dimethyl sulfoxide was added to each well, and the absorbance was measured to confirm cell viability.

H1975 cells = assay: Cancer cell death verification (MTT cell viability); type: cell-based
Experimental: 3×10^3 Brain cancer (U-87MG), lung cancer (H1975), pancreatic cancer (Aspc-1), liver cancer (Hep G2), breast cancer (MDA-MB-231), colon cancer (HCT116), kidney cancer (Caki-1), gastric cancer (SNU-1) and ovarian cancer (OVCAR-3) cells were cultured in a 96-well plate under conditions of 37° C. and 5% CO2 for 24 hours, and then each cancer cell was treated with ADP-ribose at each concentration. After culturing for 24 hours under conditions of 37° C. and 5% CO2 again, 10 μl of 3-(4,5-dimethylthiazol-2-yl)-2,5-diphenyltetrazolium bromide reagent was added to each well and reacted for 1 hour. After the reaction was completed, the reagent was removed, 200 μl of dimethyl sulfoxide was added to each well, and the absorbance was measured to determine the concentration of half-lethality and maximum lethality compared to untreated cells.
3×10^3 H1975 cells were cultured in a 96-well plate for 24 hours under conditions of 37° C. and 5% CO2, treated with ADP-ribose at concentrations of 0.125, 0.25, 0.5, 1, 2, 4, 8, 16, and 32 μM, respectively, and cultured again for 24 hours under conditions of 37° C. and 5% CO2. Then, 10 μl of 3-(4,5-dimethylthiazol-2-yl)-2,5-diphenyltetrazolium bromide reagent was added to each well and reacted for 1 hour. After the reaction was completed, the reagent was removed, 200 μl of dimethyl sulfoxide was added to each well, and the absorbance was measured to confirm cell viability.

MDA-MB-231 cells [4] = assay: ADP-ribose quantitative analysis (ELISA) in cancer cells; type: cell-based; details: 16 μM ADP-ribose, 24 hours, P<0.001
Experimental: After culturing, the culture medium was removed, the cells were washed with phosphate-buffered saline, and then RIPA buffer was added and the cells were left on ice for 20 minutes. After scraping the cells, the cells were put in a centrifuge tube and centrifuged for 10 minutes at 10,000 g and 4° C. The supernatant was obtained, and 1% SDS was added, and then the reaction product was boiled at 100° C. for 5 minutes and cooled on ice. The supernatant was centrifuged again at 10,000 g and 4° C. for 10 minutes to obtain the final supernatant, and ADP-ribose was quantitatively analyzed and compared using an ELISA analysis kit (Cell Biolabs, Inc., San Diego, CA, USA).
5×10^5 MDA-MB-231 cells were divided into the untreated group and 16 μM ADP-ribose-treated group and cultured in Leibovitz's L-15 medium supplemented with 10% fetal calf serum+100 units/ml penicillin+100 μg/ml streptomycin under conditions of 37° C. and 5% CO2 for 24 hours. The medium of the cultured cells was removed, and the supernatant prepared by treatment with RIPA buffer and 1% sodium dodecyl sulfate (SDS) was used for ELISA analysis to detect and analyze ADP-ribose.

[5] = system: Lung cancer (H1975) cells; assay: Cell death by combination treatment with anti-cancer drug (MTT); type: cell-based; details: Homo sapiens, NCI-H1975; H1975, ADP-ribose 1.6 μM in combination with osimertinib 1 nM, 24 hours, P<0.001
[6] = system: Pancreatic cancer (AsPC-1) cells; details: AsPC-1 xenograft
Experimental: as §1
The tumor size was measured using a digital caliper, and the results of changes in tumor volume were compared by the group.

[7] = ADP-ribose 10 mg/kg s.c. in combination with sorafenib 10 mg/kg, P<0.001
[8] = ADP-ribose 10 mg/kg s.c. in combination with gemcitabine 50 mg/kg, P<0.001

## Nc1ncnc2c1ncn2[C@@H]1O[C@H](COP(=O)(O)OP(=O)(O)OC[C@H]2O[C@@H](O)C(O)C2O)C(O)C1O (stereo partly drawn) [ADP-ribose, adenosine diphosphate ribose]
MDA-MB-231 cells [1]; Homo sapiens, MDA-MB-231, 24 h, read-out: half-lethal dose (concentration at which about half of the cells were killed)
  IC50: ~16 µM
MDA-MB-231 cells [1]; MDA-MB-231, 24 hours, MTT
  maximum lethal dose (concentration at which almost all cells were killed): 32 µM
MDA-MB-231 cells [1]; MDA-MB-231, ADP-ribose treated vs control, FIG. 6A
  cancer cell growth under a microscope: inhibited from growing and killed
U-87MG cells
  amount of ADP-ribose in the cells over time compared to the control group: maintained a significant (P<0.001) increase
HCT116 cells
  survival rate of cancer cells: about 14%
[2]; [7]
  reduction of tumor volume compared to the control group: about 76%
  reduction of tumor volume compared to the group treated with sorafenib alone: about 70%
[2]; ADP-ribose 10 mg/kg subcutaneous 3 times a week in combination with sorafenib 10 mg/kg, control about 2322.4
  final tumor volume: about 546 mm^3
SNU-1 cells
  cell death compared to the control group: killed significantly
[3]
  viability at 1.6 µM: ~12%
H1975 cells; H1975, 24 hours, MTT
  maximum lethal dose (concentration at which almost all cells were killed): 32 µM
H1975 cells; H1975, ADP-ribose treated vs control, FIG. 3A
  cancer cell growth under a microscope: inhibited from growing and killed
H1975 cells; Homo sapiens, NCI-H1975, 24 h, read-out: half-lethal dose (concentration at which about half of the cells were killed)
  IC50: ~2 µM
MDA-MB-231 cells [4]
  amount of ADP-ribose in cells compared to the control group: remarkably increased significantly
[5]
  viability at 1.6 µM: ~0.9%
[6]; [8]
  reduction of tumor volume compared to the control group: about 80%
  reduction of tumor volume compared to the group treated with gemcitabine alone: about 76%
[6]; ADP-ribose 10 mg/kg subcutaneous 3 times a week in combination with gemcitabine 50 mg/kg, control about 2174.3
  final tumor volume: about 444.3 mm^3

Source: patent US20230372382A1, “USE OF ADENOSINE DIPHOSPHATE RIBOSE FOR ADJUVANT THERAPY WITH RADIATION AND/OR ANTI-CANCER TREATMENT” (PearlsInMires Co., Ltd., priority 2021, published 2023)
